Assay results published in publication PMC8861050, “Design, synthesis and evaluation of novel 2-oxoindoline-based acetohydrazides as antitumor agents” (Scientific Reports, 2022).
Read-outs that look alike come from different tables or passages of the source.

How the values were obtained:
PC3 (prostate cancer) [1] = system: PC3 (prostate cancer); design: method as in PMID 30054973; settings: positive control, for relative comparison; read-out: Cytotoxicity (IC50) PC3; cited from earlier work
NCI-H23 (lung cancer) [2] = system: NCI-H23 (lung cancer); design: method as in PMID 30054973; settings: positive control, for relative comparison; read-out: Cytotoxicity (IC50) NCI-H23; cited from earlier work
SW620 cells = test: Morphology changes of treated cells; format: cell-based, human; settings: 24 h treatment (50 μM; 4o 5, 10, 30 μM; PAC-1 30 μM)
Description: (§1) Figure 7 Morphology changes of cells treated with compound 4f, 4h, 4n, 4o, 4p or PAC-1. SW620 at 2.5 × 10^5 cells/mL (500 µL in 24 well) were incubated for 24 h and then further treated with compounds or PAC-1 (50 μM) for 24 h. Cells were photographed using an Imaging Device (Celldiscoverer 7) with ×20 (A) and ×40 (B) lens. Scale bar: […]. UN untreated, VH vehicle (DMSO. 0.1%). Representative images are shown.
as §1, with “Figure 8” for “Figure 7”, “compound 4o” for “compound 4f, 4h, 4n, 4o, 4p”, “with 4o (5, 10, and 30 μM)” for “with compounds”, “PAC-1 (30” for “PAC-1 (50”

SW620 (colon cancer) = test: SRB cytotoxicity assay, SW620; format: cell-based; settings: Homo sapiens, SW-620, 48 h incubation, mean ± SEM of 3 independent experiments
Excerpt: (§2) Three human cancer cell lines: colon cancer (SW620), prostate cancer (PC3), and lung cancer (NCI-H23) were used for sceening the cytotoxicity of the compounds. The cancer cells were purchased from American Type Culture Collection (Manassas, VA, USA). Other reagents/media for cell culture were obtained from GIBCO (Grand Island, New York, USA). The testing cancer cells were culture in Dulbecco’s Modified Eagle Medium until confluence. Then, they were trypsinized and suspended at the level of 3 × 10^4 cells/mL of cell culture medium. On day 0, cancer cells were seeded at a volume of 180 µL/well of 96-well plates and incubated for 24 h at 37 °C in a 5% CO2 incubator. On day 1, 20 µL of various concentrations of testing compounds were added to each well of the 96-well plates. Chemicals were dissolved in dimethyl sulfoxide (DMSO, stock) and diluted in culture medium (1% DMSO) before adding to the culture. After 48 h incubation, the sulforhodamine B assay was used for cell density determination with slight modifications[22]–[26]. The Probits were used for the calculation of IC50 values. The reported IC50 were the averages of three independent screening (SD ≤ 10%)[27].
(§3) Two series of compounds synthesized (4a–p and 5a–f) were evaluated for their cytotoxicity against three human cancer cell lines, including SW620 (colon cancer), PC3 (prostate cancer), NCI-H23 (lung cancer), using SRB method as described previously[22] with slight modifications[23]–[26].

[3] = system: U937 human lymphoma cells; test: Cell cycle analysis (PI, flow cytometry); format: cell-based; settings: 50 µM, 24 h
Description: U937 human lymphoma cells (5 × 10^5/mL per well) were plated in 6-well culture plates and allowed to grow for 24 h. In our first experiment, we examined the effects of 4f, 4h, 4n, 4o, 4p, and PAC-1 on cell cycles at 50 µM. In the second experiment, we examined the dose-dependent effect of 4o at 5, 10, and 30 µM and PAC-1 at 30 µM on cell cycles. The cells were treated with compounds for 24 h, and then harvested. The harvested cells were washed twice with ice-cold PBS, fixed in 75% ice-cold ethanol, and stained with propidium iodide (PI) in the presence of RNase at room temperature for 30 min. The stained cells were analyzed for DNA content using a FACScalibur flow cytometer (BD Biosciences, San Jose, CA, USA) and the data were processed using Cell Quest Pro software (BD Biosciences).
(§4) Figure 3 Cell cycle analysis after treatment with some compounds. U937 human lymphoma cells were treated with compounds (50 µM) for 24 h. The harvested cells were stained with propidium iodide (PI) in the presence of RNase and then were analyzed for DNA content by using flow cytometry. Ten thousand cells were acquired (n = 3). UN untreated, VH vehicle (DMSO. 0.1%). Representative histograms (A) and bar graphs (B) are shown. p values were calculated using one-way ANOVA in GraphPad Software (San Diego, CA, USA). *p < 0.01 vs VH control.
as §4, with “Figure 4” for “Figure 3”, “analysis under” for “analysis after”, “with different concentrations of compound 4o.” for “with some compounds.”, “with compound 4o at 5, 10 and 30 µM or PAC-1 (30” for “with compounds (50”

U937 cells = system: U937 cells; design: method as in PMID 34674294; settings: 48 h, as reported, read-out: IC50 in 48-h-cytotoxicity assay; cited from earlier work
[4] = Cytotoxicity on normal mesenchymal stem cells; format: cell-based; settings: human bone marrow-derived mesenchymal stem cells; mean ± SEM; read-out: Cytotoxicity (IC50) MSCs
Description: Overally, 5-fluorinated compounds (4i–p and 5d–f) were slightly more cytotoxic than non-fluorinated ones (4a–h, 5a–c). For compounds in series 4a–p, it was observed that, electron-releasing substituents (–OCH3, OH) were generally better than electron-withdrawing groups (–Cl) for cytotoxicity. Especially, compounds with 2-OH substituents produced the best cytotoxicity. The addition of either 4-OCH3 or 3-allyl groups further enhanced cytotoxicity of the related compounds (4g, 4h and 4o, 4p).

NCI-H23 (lung cancer) [5] = test: SRB cytotoxicity assay, NCI-H23; format: cell-based; settings: Homo sapiens, 48 h incubation, mean ± SEM of 3 independent experiments
Excerpt: as §2, §3

PC3 (prostate cancer) [6] = test: SRB cytotoxicity assay, PC3; format: cell-based; settings: Homo sapiens, 48 h incubation, mean ± SEM of 3 independent experiments
Excerpt: as §2, §3

caspase-3 = target: T1, caspase-3 (Homo sapiens, UniProt P42574); test: Caspase-3 activation assay in U937 cell extract; format: cell-based; settings: U937 cells, 24 h, 50 µM
T1 construct: endogenous in cells; host or cells: U937 human lymphoma cells
T1 sequence (P42574 1-277): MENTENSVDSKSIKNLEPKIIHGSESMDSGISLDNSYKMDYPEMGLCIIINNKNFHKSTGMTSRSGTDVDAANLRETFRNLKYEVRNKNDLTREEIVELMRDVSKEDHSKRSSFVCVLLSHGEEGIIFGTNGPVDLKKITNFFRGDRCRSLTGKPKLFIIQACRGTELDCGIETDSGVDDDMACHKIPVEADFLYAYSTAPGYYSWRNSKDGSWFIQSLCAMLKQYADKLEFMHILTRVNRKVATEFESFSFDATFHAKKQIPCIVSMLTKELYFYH
Description: Caspase-3 activation assay
Caspase activity was measured by using caspase 3 assay kit according to the manufacturer’s instructions (abcam, MA, USA). U937 human lymphoma cells (5 × 10^5/mL per well) were plated in 6-well culture plates and allowed to grow for 24 h. The cells were treated with compounds for 24 h, and then harvested. The harvested cells were washed twice with ice-cold PBS and treated with lysis buffer included in the kit. Cell lysate (100 µg/50 µL) was mixed with 50 µL of 2 × reaction buffer and 5 µL of DEVD-p-NA substrate as the instruction of caspase-3 assay kit (Abcam, cat. N. ab39401). […] was measured after one-hour incubation.
Next, we selected 5 representative compounds, including 4f, 4h, 4n, 4o and 4p, to investigate their effects on the caspase activity, cell cycle, and apoptosis. […] Thus, we used the extract of U937 cells in caspase-3 activation assay, referring to our previous study. […] However, our compounds unexpectedly were not recorded to activate caspase-3 activity. […] Next, we investigated the effect of PAC-1 and our chemicals on cell cycle and apoptosis by using U937 cells. In the cell cycle analysis, U937 cells were treated with 50 µM of compounds for 24 h, stained with propidium iodide (PI) in the presence of RNase, and then analyzed for DNA content by using flow cytometry. PAC-1 was used in parallel as a positive control.

Row | Compound | IC50 (PC3 (prostate cancer) [1]) | IC50 (NCI-H23 (lung cancer) [2]) | Cellular morphology (SW620 cells) | IC50 (SW620 (colon cancer)) | Effect on cell cycle distribution [3] | IC50 (U937 cells) | IC50 [4] | IC50 (NCI-H23 (lung cancer) [5]) | IC50 (PC3 (prostate cancer) [6]) | Caspase-3 activation (caspase-3)
1 | O=c1[nH]cc(F)c(=O)[nH]1 [Compound 5-FU, 5-Fluorouracil] | 13.6 ± 0.46 µM | 13.5 ± 3.92 µM |  |  |  |  |  |  |  | 
2 | C=CCc1cccc(/C=N/NC(=O)CN2CCN(Cc3ccccc3)CC2)c1O [PAC-1, reference compound] |  |  | showed morphology of apoptotic cells | 5.43 ± 0.18 µM | accumulation of cells in G0/G1 phase | 8.47 µM | 9.22 ± 0.12 µM | 5.11 ± 0.22 µM | 4.11 ± 0.39 µM | activated caspase-3
